SMILES strings stand for the structures.

Experiment [1] concerns the target T1, Transcription regulator protein BACH1 (Homo sapiens) (UniProt O14867).
T1 sequence (whole entry): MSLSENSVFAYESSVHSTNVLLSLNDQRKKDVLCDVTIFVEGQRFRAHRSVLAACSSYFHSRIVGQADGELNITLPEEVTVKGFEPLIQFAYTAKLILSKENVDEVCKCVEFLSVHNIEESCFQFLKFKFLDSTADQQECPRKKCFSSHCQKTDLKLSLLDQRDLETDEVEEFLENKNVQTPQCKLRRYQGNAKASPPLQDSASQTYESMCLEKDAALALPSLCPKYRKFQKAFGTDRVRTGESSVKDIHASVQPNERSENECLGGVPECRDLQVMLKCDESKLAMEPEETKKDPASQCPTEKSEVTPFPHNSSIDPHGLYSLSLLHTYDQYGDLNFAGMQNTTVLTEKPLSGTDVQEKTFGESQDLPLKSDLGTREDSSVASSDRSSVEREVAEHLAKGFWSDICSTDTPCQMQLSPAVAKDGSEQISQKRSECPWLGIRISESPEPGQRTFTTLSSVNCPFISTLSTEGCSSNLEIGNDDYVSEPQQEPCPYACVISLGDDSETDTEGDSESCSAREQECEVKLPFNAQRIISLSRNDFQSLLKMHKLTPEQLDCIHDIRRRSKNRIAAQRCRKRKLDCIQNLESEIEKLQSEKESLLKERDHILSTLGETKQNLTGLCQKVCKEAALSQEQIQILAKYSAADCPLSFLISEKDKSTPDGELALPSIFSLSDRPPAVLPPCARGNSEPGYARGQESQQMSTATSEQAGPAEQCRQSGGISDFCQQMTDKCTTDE
The experiment in a line: Inhibition of Bach1 in normal human lung fibroblasts assessed as induction of HMOX protein expression at 0.019 uM incubated for 16 to 18 hrs by immunostaining relative to control.

Experiment [2] has as its target T1, Transcription regulator protein BACH1 (Homo sapiens). The experiment is described as follows: Inhibition of Bach1 in normal human lung fibroblasts assessed as induction of HMOX protein expression by measuring HMOX positive cells level at 0.039 uM in presence of 0.1 uM Nrf2 activator DMF incubated for 16 to 18 hrs by immunostaining relative to control DMSO. More on the design: scale not given: the % may be the effect or the level left.

For experiment [3] the target is unchanged. The experiment in a line: Inhibition of Bach1 in normal human lung fibroblasts assessed as induction of HMOX protein expression by measuring HMOX positive cells level at 0.078 uM in presence of 0.1 uM Nrf2 activator DMF incubated for 16 to 18 hrs by immunostaining relative to control DMSO. More on the design: scale not given: the % may be the effect or the level left.

For experiment [4] the target is unchanged. The experiment is described as follows: Inhibition of Bach1 in normal human lung fibroblasts assessed as induction of HMOX protein expression by measuring HMOX positive cells level at 0.156 uM in presence of 0.1 uM Nrf2 activator DMF incubated for 16 to 18 hrs by immunostaining relative to control DMSO. More on the design: scale not given: the % may be the effect or the level left.

The target is the same in experiment [5]. The experiment is described as follows: Inhibition of Bach1 in normal human lung fibroblasts assessed as induction of HMOX protein expression by measuring HMOX positive cells level at 0.156 uM in presence of 0.3 uM Nrf2 activator DMF incubated for 16 to 18 hrs by immunostaining relative to control DMSO. More on the design: scale not given: the % may be the effect or the level left.

Experiment [6] shares this target. The experiment is described as follows: Inhibition of Bach1 in normal human lung fibroblasts assessed as induction of HMOX protein expression by measuring HMOX positive cells level at 0.039 uM in presence of 1 uM Nrf2 activator DMF incubated for 16 to 18 hrs by immunostaining relative to control DMSO. More on the design: scale not given: the % may be the effect or the level left.

For experiment [7] the target is unchanged. The experiment is described as follows: Inhibition of Bach1 in normal human lung fibroblasts assessed as induction of HMOX protein expression by measuring HMOX positive cells level at 0.019 uM in presence of 3 uM Nrf2 activator DMF incubated for 16 to 18 hrs by immunostaining relative to control DMSO. More on the design: scale not given: the % may be the effect or the level left.

For experiment [8] the target is unchanged. The experiment in a line: Inhibition of Bach1 in normal human lung fibroblasts assessed as induction of HMOX protein expression by measuring HMOX positive cells level at 0.156 uM in presence of 3 uM Nrf2 activator DMF incubated for 16 to 18 hrs by immunostaining relative to control DMSO. More on the design: scale not given: the % may be the effect or the level left.

Experiment [9] shares this target. The experiment in a line: Inhibition of Bach1 in normal human lung fibroblasts assessed as induction of HMOX protein expression by measuring HMOX positive cells level at 0.078 uM in presence of 10 uM Nrf2 activator DMF incubated for 16 to 18 hrs by immunostaining relative to control DMSO. More on the design: scale not given: the % may be the effect or the level left.

For experiment [10] the target is unchanged. The experiment is described as follows: Inhibition of Bach1 in normal human lung fibroblasts assessed as induction of HMOX protein expression by measuring HMOX positive cells level at 0.078 uM in presence of 30 uM Nrf2 activator DMF incubated for 16 to 18 hrs by immunostaining relative to control DMSO. More on the design: scale not given: the % may be the effect or the level left.

The target is the same in experiment [11]. The experiment is described as follows: Inhibition of Bach1 in normal human lung fibroblasts assessed as induction of HMOX protein expression at 0.039 uM incubated for 16 to 18 hrs by immunostaining relative to control.
For experiment [12] the target is unchanged. The experiment in a line: Inhibition of Bach1 in normal human lung fibroblasts assessed as induction of HMOX protein expression at 0.039 uM in presence of 0.03 uM Nrf2 activator DMF incubated for 16 to 18 hrs by immunostaining relative to control.
The target is the same in experiment [13]. The experiment is described as follows: Inhibition of Bach1 in normal human lung fibroblasts assessed as induction of HMOX protein expression at 0.156 uM in presence of 0.03 uM Nrf2 activator DMF incubated for 16 to 18 hrs by immunostaining relative to control.
The target is the same in experiment [14]. The experiment is described as follows: Inhibition of Bach1 in normal human lung fibroblasts assessed as induction of HMOX protein expression at 0.078 uM in presence of 0.1 uM Nrf2 activator DMF incubated for 16 to 18 hrs by immunostaining relative to control.
For experiment [15] the target is unchanged. The experiment is described as follows: Inhibition of Bach1 in normal human lung fibroblasts assessed as induction of HMOX protein expression at 0.039 uM in presence of 0.3 uM Nrf2 activator DMF incubated for 16 to 18 hrs by immunostaining relative to control.
The target is the same in experiment [16]. The experiment in a line: Inhibition of Bach1 in normal human lung fibroblasts assessed as induction of HMOX protein expression at 0.078 uM in presence of 0.3 uM Nrf2 activator DMF incubated for 16 to 18 hrs by immunostaining relative to control.
The target is the same in experiment [17]. The experiment is described as follows: Inhibition of Bach1 in normal human lung fibroblasts assessed as induction of HMOX protein expression at 0.156 uM in presence of 0.3 uM Nrf2 activator DMF incubated for 16 to 18 hrs by immunostaining relative to control.
For experiment [18] the target is unchanged. The experiment in a line: Inhibition of Bach1 in normal human lung fibroblasts assessed as induction of HMOX protein expression at 0.039 uM in presence of 1 uM Nrf2 activator DMF incubated for 16 to 18 hrs by immunostaining relative to control.
Experiment [19] shares this target. The experiment is described as follows: Inhibition of Bach1 in normal human lung fibroblasts assessed as induction of HMOX protein expression at 0.019 uM in presence of 30 uM Nrf2 activator DMF incubated for 16 to 18 hrs by immunostaining relative to control.
For experiment [20] the target is unchanged. The experiment is described as follows: Inhibition of Bach1 in normal human lung fibroblasts assessed as induction of HMOX protein expression at 0.039 uM in presence of 30 uM Nrf2 activator DMF incubated for 16 to 18 hrs by immunostaining relative to control.

Turning to `COCCNC(=O)c1cnc2c(c1)nc(Nc1nc3ccc(OC(F)(F)F)cc3s1)n2C`, the fold change (FC) in experiment [1] amounted to 1.24; in experiment [11], 1.45; in experiment [12], 1.07; in experiment [13], 1.46; in experiment [14], 1.21; in experiment [15] it was 1.59. For the same compound, the fold change (FC) came to 1.43 in experiment [16]; 2.06 in experiment [17]; 1.97 in [18]; 4.23 in experiment [19]; 4.82 in experiment [20]. The Activity was 2.54% in experiment [2]; 7.05% in experiment [3]; 18.5% in [4]; 30.1% in [5]; 23.1% in experiment [6]; 54.6% in experiment [7]. In addition, the Activity turned out to be 79.6% in [8], 94.5% in experiment [9] and 86.8% in experiment [10].

With `CN(C)C(=O)CNC(=O)c1ccc2c(c1)nc(Nc1nc3ccc(C(F)(F)F)cc3s1)n2C`, the fold change (FC) in experiment [1] amounted to 1.29; in experiment [11] it was 1.37; in experiment [12] it was 1.28; in experiment [13], 1.99; in [14], 1.48; in experiment [15] it was 1.61. Besides, the fold change (FC) in experiment [16] was 1.73; in experiment [17], 3.06; in experiment [18] it was 2.1; in experiment [19], 4.65; in experiment [20], 4.9. The Activity worked out at 6.82% in experiment [2]; 8.24% in experiment [3]; 33.1% in [4]; 50% in [5]; 23.5% in [6]; 51.5% in experiment [7]. For the same compound, the Activity in [8] was found to be 89%; in experiment [9], 97.2%; in experiment [10], 96.2%.

`CNC(=O)c1ccc2c(c1)nc(Nc1nc3ccc(OC(F)(F)F)cc3s1)n2C`: the fold change (FC) in experiment [1] came out at 0.97; in [11], 1.09.

As to `Cn1c(Nc2nc3ccc(C(F)(F)F)cc3s2)nc2cc(C(=O)NCCOCCO)ccc21`, the fold change (FC) in experiment [1] was 2.08; in [11], 2.51; in experiment [12], 1.81; in experiment [13] it was 5.22; in experiment [14], 2.87; in [15] it was 1.81. Further, the fold change (FC) stood at 3.21 in experiment [16]; 5.17 in experiment [17]; 2.6 in [18]; 4.9 in [19]; 5.52 in experiment [20]. Besides, the Activity in [2] was 6.75%; in [3] it was 44.6%; in experiment [4], 88.2%; in experiment [5] it was 94.5%; in [6], 38.7%; in experiment [7], 80.2%. For the same compound, the results for the Activity in experiment [8], in experiment [9] and in [10] were 99.2%, 97.7% and 91.3%, respectively.

The record behind these values is ChEMBL document CHEMBL4421728, “Bach1 Inhibitors in Combination with Nrf2 Activators and Pharmaceutical Compositions Thereof” (2017).
